Results published in US9434687B2, “Detection of synthetic cannabinoids” (priority 2011, dated 2016).

Columns and labels:
Assay type in all cases: binding, sheep
[1] = tested on: IgG fraction of antiserum raised to Immunogen I; conditions: Antibody to Immunogen I; cross-reactants at 100 ng/ml; 1000 ng/ml; standard JWH-018
Procedure: (§1) An aqueous solution of each immunogen was formulated with Freund's Complete Adjuvant (FCA) to form an emulsion consisting of 2 mg/ml*immunogen in 50% (v/v) FCA. Three sheep were immunised with this emulsion (1° immunisation), 0.25 ml being intramuscularly injected at each of four sites in the flank of each animal. Subsequent immunizations (boosts) contained 1 mg/ml*immunogen. All boosts were emulsified in 50% (v/v) Freund's Incomplete Adjuvant (FIA) and were administered in the same manner as the 1° immunisation, at monthly intervals. Blood sampling took place 7 to 14 days after each boost. *The general procedure for immunogen administration is outlined above, however, it was necessary to deviate from this protocol in some cases, due to reduced immunogen concentrations (Immunogens II, IV, VII and VIII) and/or amount available (Immunogen VIII). Any deviations from the protocol described are outlined in Table 5 below and highlighted in bold.
(§2) The wells of an enhanced binding 96 well polystyrene microtiter plate were coated with IgG fraction of antiserum raised to Immunogen I or II, diluted in 10 mM Tris, pH8.5 (125 μl/well). The appropriate antibody coating dilution was determined using standard ELISA checkerboard techniques. The plate was incubated overnight at 4° C., washed 4 times over 10 minutes with Tris buffered saline containing Tween 20 (TBST) and tapped dry. Standard solutions (JWH-018 for Immunogens I and II) were applied at 0, 0.625, 1.25, 2.5, 5, 10, 20 and 40 ng/ml and 50 μl of each was added to the appropriate wells. 75 μl of conjugate (appropriate hapten-HRP) diluted in Tris buffer (pH 7.2) containing EDTA, D-mannitol, sucrose, thimerosal and BSA, was added to each of the wells. The appropriate dilution of conjugate was also determined using standard ELISA checkerboard techniques. The plate was incubated at 25° C. for 1 hour. Excess unbound conjugate was removed by washing 6 times over a 10 minute period with TBST. 125 μl of tetramethylbenzidine (TMB) substrate solution was added to each well of the plate that was then incubated for 20 minutes in the dark at room temperature. The reaction was terminated by addition of 125 μl 0.2M H2SO4 to each well. The absorbance was then measured at 450 nm using a microtiter plate reader. The data are inputted to a computer program called ‘KC Junior’. It is a 4 parameter fit curve and allow the calculation of concentrations between the standard runs. This program is used to calculate the IC50s by dividing the 0 ng/ml OD value by 2 and obtaining the concentration value from the curve for this OD.
In a similar manner to that described above, the wells of a 96-well microtiter plate were coated with the IgG fraction of the antiserum raised to Immunogens I or II. Standard solutions (JWH-018 for Immunogen I and II) were applied at 0, 0.625, 1.25, 2.5, 5, 10, 20 and 40 ng/ml and conjugate was employed as detection reagent.
(§3) The data set out in Tables 7-10 are generated using antibodies raised against the indicated Immunogens in a competitive binding assay with the indicated tracers, using the indicated standards
(§4) In order to determine the specificity of the competitive ELISAs, standard solutions of a range of structurally similar synthetic cannabinoids and their metabolites were prepared in TBST.
(§5) Using the calibration curves generated and employing a single level of cross reactants, these were used to determine the cross-reactivity of each immunoassay with these substances. These are the standards used for the IC50 and cross-reactivity data generation: […]

[2] = tested on: IgG fraction of antiserum raised to Immunogen VII; conditions: Antibody to Immunogen VII; cross-reactants at 100 ng/ml; 1000 ng/ml; standard JWH-015
Procedure: as §1, §2
(§6) In a similar manner to that described above, the wells of a 96-well microtiter plate were coated with the IgG fraction of the antiserum raised to Immunogens IV, VII or VIII. Standard solutions (JWH-018 for Immunogens IV and VIII, JWH-015 for Immunogen VII) were prepared in TBST at 0, 1.25, 2.5, 5, 10, 20, 40 and 80 ng/ml and conjugate was employed as detection reagent.
as §3, §4, §5

[3] = tested on: IgG fraction of antiserum raised to Immunogen VIII; conditions: Antibody to Immunogen VIII; cross-reactants at 100 ng/ml; 1000 ng/ml; standard JWH-018
Procedure: as §1, §2, §6, §3, §4, §5

[4] = tested on: IgG fraction of antiserum raised to Immunogen IV; conditions: Antibody to Immunogen IV; cross-reactants at 100 ng/ml; 1000 ng/ml; standard JWH-018
Procedure: as §1, §2, §6, §3, §4, §5

## CCCCCCC(C)(C)c1ccc([C@@H]2C[C@H](O)CC[C@H]2CCCO)c(O)c1 (racemic) [(+−)-CP 55,940]
[1]
  % B/B0: 100.61%
[2]
  % B/B0: 100.25%
[3]
  % B/B0: 100.25%
[4]
  % B/B0: 94.60%

## CCCCCn1c(O)c(C(=O)c2cccc3ccccc23)c2ccccc21 [2-OH JWH-018, JWH-018 2-hydroxyindole metabolite]
[1]
  % B/B0: 95.37%
[2]
  % B/B0: 95.08%
[3]
  % B/B0: 101.36%
[4]
  % B/B0: 100.14%

## CCCCn1c(O)c(C(=O)c2cccc3ccccc23)c2ccccc21 [2-OH JWH-073, JWH-073 2-hydroxyindole metabolite]
[1]
  % B/B0: 89.62%
[2]
  % B/B0: 92.65%
[3]
  % B/B0: 93.42%
[4]
  % B/B0: 89.63%

## COc1ccc(C(=O)c2c(C)n(CCN3CCOCC3)c3cc(I)ccc23)cc1 [AM-630, 6-Iodopravadoline]
[1]
  % B/B0: 91.12%
[2]
  % B/B0: 99.88%
[3]
  % B/B0: 89.88%
[4]
  % B/B0: 90.17%

## O=C(c1ccc(I)cc1)c1cn(CCCCCF)c2ccccc12 [AM-694 4-iodo isomer]
[1]
  % B/B0: 73.79%
[2]
  % B/B0: 98.71%
[3]
  % B/B0: 13.42%
[4]
  % B/B0: 27.66%

## CN1CCCCC1Cn1cc(C(=O)c2cc([N+](=O)[O-])ccc2I)c2ccccc21 (centres unmarked) [AM-1241]
[1]
  % B/B0: 85.61%
[2]
  % B/B0: 94.96%
[3]
  % B/B0: 102.46%
[4]
  % B/B0: 91.38%

## CCCCCCC(C)(C)C1=CC(=O)C(C2CCCC(O)C2)=CC1=O (centres unmarked) [CP-47,497-para-quinone analogue]
[1]
  % B/B0: 100.26%
[2]
  % B/B0: 93.29%
[3]
  % B/B0: 88.11%
[4]
  % B/B0: 97.33%

## CCCCCCCC(C)(C)c1ccc(C2CCCC(O)C2)c(O)c1 (centres unmarked) [CP-49,497-C8-homologue]
[1]
  % B/B0: 101.11%
[2]
  % B/B0: 98.55%
[3]
  % B/B0: 104.88%
[4]
  % B/B0: 94.66%

## CCCCCCC(C)(C)c1cc(O)c2c(c1)OC(C)(C)[C@@H]1CC=C(CO)C[C@@H]21 [HU-210]
[1]
  % B/B0: 102.57%
[2]
  % B/B0: 100.39%
[3]
  % B/B0: 93.42%
[4]
  % B/B0: 92.53%

## CCCCCCC(C)(C)c1cc(O)c2c(c1)OC(C)(C)[C@H]1CC=C(CO)C[C@H]21 [HU-211, Dexanabinol]
[1]
  % B/B0: 103.36%
[2]
  % B/B0: 96.78%
[3]
  % B/B0: 92.70%
[4]
  % B/B0: 93.37%

## CCCCCCC(C)(C)c1cc(OC)c([C@@H]2C=C(CO)[C@@H]3C[C@H]2C3(C)C)c(OC)c1 [HU-308]
[1]
  % B/B0: 101.35%
[2]
  % B/B0: 95.95%
[3]
  % B/B0: 89.77%
[4]
  % B/B0: 94.03%

## CCCCCn1cc(C(=O)c2ccc3ccccc3c2)c2ccccc21 [JWH 018 2′-naphthyl isomer]
[1]
  % B/B0: 75.90%
[2]
  % B/B0: 94.98%
[3]
  % B/B0: 14.94%
[4]
  % B/B0: 28.13%

## CCCCCn1cc(C(=O)C23CC4CC(CC(C4)C2)C3)c2ccccc21 [JWH 018 adamantyl analog]
[1]
  % B/B0: 95.94%
[2]
  % B/B0: 94.48%
[3]
  % B/B0: 10.97%
[4]
  % B/B0: 99.02%

## CCCCCn1cc(C(=O)Cc2cccc(Cl)c2)c2ccccc21 [JWH 203 3-chloro isomer]
[1]
  % B/B0: 95.59%
[2]
  % B/B0: 97.42%
[3]
  % B/B0: 10.34%
[4]
  % B/B0: 55.09%
